Laboratory results: ChEMBL document CHEMBL3045446, “In vitro antimicrobial and antimycobacterial activity of some chalcones and their derivatives” (2013)
Values after ≈ are worked out from the molar mass of the structure shown.

Key:
Format in all cases: functional
[1] = system: Mycobacterium tuberculosis; test: Antituberculosis activity against Mycobacterium tuberculosis H37Rv assessed as growth inhibition after 12 to 28 days by L-J MIC method; conditions: for MIC: Mycobacterium tuberculosis, H37Rv
Candida albicans [2] = test: Antimicrobial activity against Candida albicans MTCC 183 assessed as growth inhibition after 48 hr by agar streak dilution method; conditions: MTCC 183, 48 h
Aspergillus clavatus [3] = test: Antimicrobial activity against Aspergillus clavatus MTCC 1323 assessed as growth inhibition after 48 hr by agar streak dilution method; conditions: MTCC 1323, 48 h
Aspergillus fumigatus [4] = test: Antimicrobial activity against Aspergillus fumigatus MTCC 343 assessed as growth inhibition after 48 hr by agar streak dilution method; conditions: MTCC 343, 48 h
Aspergillus niger [5] = test: Antimicrobial activity against Aspergillus niger MTCC 282 assessed as growth inhibition after 48 hr by agar streak dilution method; conditions: MTCC 282, 48 h
Shigella flexneri [6] = test: Antimicrobial activity against Shigella flexneri MTCC1457 assessed as growth inhibition after 24 hr by agar streak dilution method; conditions: MTCC1457, 24 h
Proteus vulgaris [7] = test: Antimicrobial activity against Proteus vulgaris MTCC 1771 assessed as growth inhibition after 24 hr by agar streak dilution method; conditions: MTCC 1771, 24 h
Salmonella typhi [8] = test: Antimicrobial activity against Salmonella enterica subsp. enterica serovar Typhi MTCC 733 assessed as growth inhibition after 24 hr by agar streak dilution method; conditions: MTCC 733, 24 h
Klebsiella pneumoniae [9] = test: Antimicrobial activity against Klebsiella pneumoniae MTCC 109 assessed as growth inhibition after 24 hr by agar streak dilution method; conditions: MTCC 109, 24 h
Pseudomonas aeruginosa [10] = test: Antimicrobial activity against Pseudomonas aeruginosa MTCC 741 assessed as growth inhibition after 24 hr by agar streak dilution method; conditions: MTCC 741, 24 h
Escherichia coli [11] = test: Antimicrobial activity against Escherichia coli MTCC 739 assessed as growth inhibition after 24 hr by agar streak dilution method; conditions: MTCC 739, 24 h
Bacillus cereus [12] = test: Antimicrobial activity against Bacillus cereus MTCC 430 assessed as growth inhibition after 24 hr by agar streak dilution method; conditions: MTCC 430, 24 h
Staphylococcus aureus [13] = test: Antimicrobial activity against Staphylococcus aureus MTCC 96 assessed as growth inhibition after 24 hr by agar streak dilution method; conditions: MTCC 96, 24 h
Candida albicans [14] = test: Antimicrobial activity against Candida albicans MTCC 183 assessed as diameter of growth inhibition zone after 48 hr; further: test concentration or dose not given here
Aspergillus clavatus [15] = test: Antimicrobial activity against Aspergillus clavatus MTCC 1323 assessed as diameter of growth inhibition zone after 48 hr; further: test concentration or dose not given here
Aspergillus fumigatus [16] = test: Antimicrobial activity against Aspergillus fumigatus MTCC 343 assessed as diameter of growth inhibition zone after 48 hr; further: test concentration or dose not given here
Aspergillus niger [17] = test: Antimicrobial activity against Aspergillus niger MTCC 282 assessed as diameter of growth inhibition zone after 48 hr; further: test concentration or dose not given here
Shigella flexneri [18] = test: Antimicrobial activity against Shigella flexneri MTCC1457 assessed as diameter of growth inhibition zone after 24 hr
Proteus vulgaris [19] = test: Antimicrobial activity against Proteus vulgaris MTCC 1771 assessed as diameter of growth inhibition zone after 24 hr
Salmonella typhi [20] = test: Antimicrobial activity against Salmonella enterica subsp. enterica serovar Typhi MTCC 733 assessed as diameter of growth inhibition zone after 24 hr
Klebsiella pneumoniae [21] = test: Antimicrobial activity against Klebsiella pneumoniae MTCC 109 assessed as diameter of growth inhibition zone after 24 hr; further: test concentration or dose not given here
Pseudomonas aeruginosa [22] = test: Antimicrobial activity against Pseudomonas aeruginosa MTCC 741 assessed as diameter of growth inhibition zone after 24 hr
Escherichia coli [23] = test: Antimicrobial activity against Escherichia coli MTCC 739 assessed as diameter of growth inhibition zone after 24 hr; further: test concentration or dose not given here
Bacillus cereus [24] = test: Antimicrobial activity against Bacillus cereus MTCC 430 assessed as diameter of growth inhibition zone after 24 hr; further: test concentration or dose not given here
Staphylococcus aureus [25] = test: Antimicrobial activity against Staphylococcus aureus MTCC 96 assessed as diameter of growth inhibition zone after 24 hr; further: test concentration or dose not given here

Row | SMILES | growth inhibition (GI) [1] [%] | MIC [1] [µg/mL] | MIC (Candida albicans [2]) [µg/mL] | MIC (Aspergillus clavatus [3]) [µg/mL] | MIC (Aspergillus fumigatus [4]) [µg/mL] | MIC (Aspergillus niger [5]) [µg/mL] | MIC (Shigella flexneri [6]) [µg/mL] | MIC (Proteus vulgaris [7]) [µg/mL] | MIC (Salmonella typhi [8]) [µg/mL] | MIC (Klebsiella pneumoniae [9]) [µg/mL] | MIC (Pseudomonas aeruginosa [10]) [µg/mL] | MIC (Escherichia coli [11]) [µg/mL] | MIC (Bacillus cereus [12]) [µg/mL] | MIC (Staphylococcus aureus [13]) [µg/mL] | diameter of the inhibition zone (DIZ) (Candida albicans [14]) [mm] | diameter of the inhibition zone (DIZ) (Aspergillus clavatus [15]) [mm] | diameter of the inhibition zone (DIZ) (Aspergillus fumigatus [16]) [mm] | diameter of the inhibition zone (DIZ) (Aspergillus niger [17]) [mm] | diameter of the inhibition zone (DIZ) (Shigella flexneri [18]) [mm] | diameter of the inhibition zone (DIZ) (Proteus vulgaris [19]) [mm] | other results
1 | Nc1nc(-c2ccccc2)cc(-c2ccc(Nc3cc(=O)oc4ccccc34)cc2)n1 | 95 | 500 (≈ 1230 µM) | 50 (≈ 123 µM) | 25 (≈ 61.5 µM) | 50 (≈ 123 µM) | 50 (≈ 123 µM) | 100 (≈ 246 µM) | 100 (≈ 246 µM) | 50 (≈ 123 µM) | 100 (≈ 246 µM) | 100 (≈ 246 µM) | 100 (≈ 246 µM) | 100 (≈ 246 µM) | 100 (≈ 246 µM) | 17 | 21 | 19 | 17 | 14 | 15 | diameter of the inhibition zone (DIZ) (Salmonella typhi [20]): 17 mm; diameter of the inhibition zone (DIZ) (Klebsiella pneumoniae [21]): 15 mm; diameter of the inhibition zone (DIZ) (Pseudomonas aeruginosa [22]): 12 mm; diameter of the inhibition zone (DIZ) (Escherichia coli [23]): 14 mm; diameter of the inhibition zone (DIZ) (Bacillus cereus [24]): 15 mm; diameter of the inhibition zone (DIZ) (Staphylococcus aureus [25]): 13 mm
2 | COc1ccc(C2CC(c3ccc(Nc4cc(=O)oc5ccccc45)cc3)=NN2C(C)=O)cc1 (stereo not drawn) | 99 | 100 (≈ 221 µM) | 50 (≈ 110 µM) | 25 (≈ 55.1 µM) | 50 (≈ 110 µM) | 25 (≈ 55.1 µM) | 100 (≈ 221 µM) | 50 (≈ 110 µM) | 100 (≈ 221 µM) | 100 (≈ 221 µM) | 50 (≈ 110 µM) | 50 (≈ 110 µM) | 100 (≈ 221 µM) | 100 (≈ 221 µM) | 19 | 20 | 18 | 21 | 16 | 20 | diameter of the inhibition zone (DIZ) (Salmonella typhi [20]): 17 mm; diameter of the inhibition zone (DIZ) (Klebsiella pneumoniae [21]): 17 mm; diameter of the inhibition zone (DIZ) (Pseudomonas aeruginosa [22]): 18 mm; diameter of the inhibition zone (DIZ) (Escherichia coli [23]): 19 mm; diameter of the inhibition zone (DIZ) (Bacillus cereus [24]): 15 mm; diameter of the inhibition zone (DIZ) (Staphylococcus aureus [25]): 16 mm
3 | CC(=O)N1N=C(c2ccc(Nc3cc(=O)oc4ccccc34)cc2)CC1c1ccc(O)cc1O (stereo not drawn) | 97 | 250 (≈ 549 µM) | 50 (≈ 110 µM) | 25 (≈ 54.9 µM) | 12.5 (≈ 27.4 µM) | 25 (≈ 54.9 µM) | 25 (≈ 54.9 µM) | 12.5 (≈ 27.4 µM) | 25 (≈ 54.9 µM) | 6.25 (≈ 13.7 µM) | 25 (≈ 54.9 µM) | 25 (≈ 54.9 µM) | 50 (≈ 110 µM) | 50 (≈ 110 µM) | 17 | 22 | 24 | 21 | 20 | 22 | diameter of the inhibition zone (DIZ) (Salmonella typhi [20]): 21 mm; diameter of the inhibition zone (DIZ) (Klebsiella pneumoniae [21]): 23 mm; diameter of the inhibition zone (DIZ) (Pseudomonas aeruginosa [22]): 22 mm; diameter of the inhibition zone (DIZ) (Escherichia coli [23]): 20 mm; diameter of the inhibition zone (DIZ) (Bacillus cereus [24]): 20 mm; diameter of the inhibition zone (DIZ) (Staphylococcus aureus [25]): 19 mm
4 | N#Cc1c(-c2ccccc2)cc(-c2ccc(Nc3cc(=O)oc4ccccc34)cc2)nc1N | 96 | 500 (≈ 1160 µM) | 25 (≈ 58.1 µM) | 12.5 (≈ 29 µM) | 25 (≈ 58.1 µM) | 25 (≈ 58.1 µM) | 50 (≈ 116 µM) | 25 (≈ 58.1 µM) | 12.5 (≈ 29 µM) | 25 (≈ 58.1 µM) | 50 (≈ 116 µM) | 50 (≈ 116 µM) | 50 (≈ 116 µM) | 50 (≈ 116 µM) | 19 | 23 | 21 | 21 | 17 | 19 | diameter of the inhibition zone (DIZ) (Salmonella typhi [20]): 23 mm; diameter of the inhibition zone (DIZ) (Klebsiella pneumoniae [21]): 21 mm; diameter of the inhibition zone (DIZ) (Pseudomonas aeruginosa [22]): 18 mm; diameter of the inhibition zone (DIZ) (Escherichia coli [23]): 19 mm; diameter of the inhibition zone (DIZ) (Bacillus cereus [24]): 19 mm; diameter of the inhibition zone (DIZ) (Staphylococcus aureus [25]): 17 mm
5 | N#Cc1c(-c2ccc([N+](=O)[O-])cc2)cc(-c2ccc(Nc3cc(=O)oc4ccccc34)cc2)nc1N | 96 | 250 (≈ 526 µM) | 12.5 (≈ 26.3 µM) | 25 (≈ 52.6 µM) | 25 (≈ 52.6 µM) | 25 (≈ 52.6 µM) | 50 (≈ 105 µM) | 50 (≈ 105 µM) | 12.5 (≈ 26.3 µM) | 25 (≈ 52.6 µM) | 50 (≈ 105 µM) | 25 (≈ 52.6 µM) | 25 (≈ 52.6 µM) | 50 (≈ 105 µM) | 23 | 22 | 20 | 23 | 20 | 19 | diameter of the inhibition zone (DIZ) (Salmonella typhi [20]): 23 mm; diameter of the inhibition zone (DIZ) (Klebsiella pneumoniae [21]): 19 mm; diameter of the inhibition zone (DIZ) (Pseudomonas aeruginosa [22]): 20 mm; diameter of the inhibition zone (DIZ) (Escherichia coli [23]): 22 mm; diameter of the inhibition zone (DIZ) (Bacillus cereus [24]): 22 mm; diameter of the inhibition zone (DIZ) (Staphylococcus aureus [25]): 17 mm
6 | O=C(/C=C/c1ccccc1O)c1ccc(Nc2cc(=O)oc3ccccc23)cc1 | 97 | 500 (≈ 1300 µM) | 100 (≈ 261 µM) | 100 (≈ 261 µM) | 50 (≈ 130 µM) | 100 (≈ 261 µM) | 100 (≈ 261 µM) | 100 (≈ 261 µM) | 100 (≈ 261 µM) | 50 (≈ 130 µM) | 100 (≈ 261 µM) | 100 (≈ 261 µM) | 100 (≈ 261 µM) | 100 (≈ 261 µM) | 13 | 11 | 17 | 16 | 13 | 15 | diameter of the inhibition zone (DIZ) (Salmonella typhi [20]): 13 mm; diameter of the inhibition zone (DIZ) (Klebsiella pneumoniae [21]): 19 mm; diameter of the inhibition zone (DIZ) (Pseudomonas aeruginosa [22]): 15 mm; diameter of the inhibition zone (DIZ) (Escherichia coli [23]): 14 mm; diameter of the inhibition zone (DIZ) (Bacillus cereus [24]): 13 mm; diameter of the inhibition zone (DIZ) (Staphylococcus aureus [25]): 15 mm
7 | CC(=O)N1N=C(c2ccc(Nc3cc(=O)oc4ccccc34)cc2)CC1c1ccccc1O (stereo not drawn) | 98 | 250 (≈ 569 µM) | 100 (≈ 228 µM) | 50 (≈ 114 µM) | 25 (≈ 56.9 µM) | 50 (≈ 114 µM) | 50 (≈ 114 µM) | 100 (≈ 228 µM) | 100 (≈ 228 µM) | 50 (≈ 114 µM) | 100 (≈ 228 µM) | 100 (≈ 228 µM) | 100 (≈ 228 µM) | 100 (≈ 228 µM) | 16 | 20 | 18 | 19 | 18 | 17 | diameter of the inhibition zone (DIZ) (Salmonella typhi [20]): 16 mm; diameter of the inhibition zone (DIZ) (Klebsiella pneumoniae [21]): 20 mm; diameter of the inhibition zone (DIZ) (Pseudomonas aeruginosa [22]): 16 mm; diameter of the inhibition zone (DIZ) (Escherichia coli [23]): 16 mm; diameter of the inhibition zone (DIZ) (Bacillus cereus [24]): 16 mm; diameter of the inhibition zone (DIZ) (Staphylococcus aureus [25]): 17 mm
8 | CC(=O)N1N=C(c2ccc(Nc3cc(=O)oc4ccccc34)cc2)CC1c1ccc(Cl)cc1 (stereo not drawn) | 97 | 250 (≈ 546 µM) | 50 (≈ 109 µM) | 100 (≈ 218 µM) | 50 (≈ 109 µM) | 100 (≈ 218 µM) | 50 (≈ 109 µM) | 50 (≈ 109 µM) | 50 (≈ 109 µM) | 50 (≈ 109 µM) | 100 (≈ 218 µM) | 100 (≈ 218 µM) | 100 (≈ 218 µM) | 50 (≈ 109 µM) | 19 | 15 | 17 | 16 | 20 | 19 | diameter of the inhibition zone (DIZ) (Salmonella typhi [20]): 18 mm; diameter of the inhibition zone (DIZ) (Klebsiella pneumoniae [21]): 21 mm; diameter of the inhibition zone (DIZ) (Pseudomonas aeruginosa [22]): 14 mm; diameter of the inhibition zone (DIZ) (Escherichia coli [23]): 15 mm; diameter of the inhibition zone (DIZ) (Bacillus cereus [24]): 17 mm; diameter of the inhibition zone (DIZ) (Staphylococcus aureus [25]): 19 mm
